The source of these data is patent US7820670B2 (Alcon Research, Ltd., priority 2006, dated 2010).

In one experiment the target is T1, ROCK 2 (Homo sapiens, UniProt O75116).
T1 construct: purchased Molecular Devices, Sunnyvale, Calif
In words: Rho kinase assay (IMAP ROCK-II kit, fluorescence polarization). It is filed as biochemical.

Experiment [1] deals with lasered (hypertensive) eyes of conscious cynomolgus monkeys. In words: Acute IOP response in lasered (hypertensive) eyes of conscious cynomolgus monkeys. The conditions noted are these: 30 ug, one 30 μL aliquot topical to right eye. It counts as in vivo. The method, then:
Intraocular pressure (IOP) can be determined with an Alcon Pneumatonometer after light corneal anesthesia with 0.1% proparacaine. Eyes are washed with saline after each measurement. After a baseline IOP measurement, test compound is instilled in one 30 μL aliquot to the right eyes only of nine cynomolgus monkeys. Vehicle is instilled in the right eyes of six additional animals. Subsequent IOP measurements are taken at 1, 3, and 6 hours.

In another experiment the target is ROCK 1 (Homo sapiens, UniProt Q13464). The experiment in a line: Rho kinase assay (IMAP ROCK-I kit, fluorescence polarization).
Chain of ROCK 1 (Q13464 whole entry, species assumed): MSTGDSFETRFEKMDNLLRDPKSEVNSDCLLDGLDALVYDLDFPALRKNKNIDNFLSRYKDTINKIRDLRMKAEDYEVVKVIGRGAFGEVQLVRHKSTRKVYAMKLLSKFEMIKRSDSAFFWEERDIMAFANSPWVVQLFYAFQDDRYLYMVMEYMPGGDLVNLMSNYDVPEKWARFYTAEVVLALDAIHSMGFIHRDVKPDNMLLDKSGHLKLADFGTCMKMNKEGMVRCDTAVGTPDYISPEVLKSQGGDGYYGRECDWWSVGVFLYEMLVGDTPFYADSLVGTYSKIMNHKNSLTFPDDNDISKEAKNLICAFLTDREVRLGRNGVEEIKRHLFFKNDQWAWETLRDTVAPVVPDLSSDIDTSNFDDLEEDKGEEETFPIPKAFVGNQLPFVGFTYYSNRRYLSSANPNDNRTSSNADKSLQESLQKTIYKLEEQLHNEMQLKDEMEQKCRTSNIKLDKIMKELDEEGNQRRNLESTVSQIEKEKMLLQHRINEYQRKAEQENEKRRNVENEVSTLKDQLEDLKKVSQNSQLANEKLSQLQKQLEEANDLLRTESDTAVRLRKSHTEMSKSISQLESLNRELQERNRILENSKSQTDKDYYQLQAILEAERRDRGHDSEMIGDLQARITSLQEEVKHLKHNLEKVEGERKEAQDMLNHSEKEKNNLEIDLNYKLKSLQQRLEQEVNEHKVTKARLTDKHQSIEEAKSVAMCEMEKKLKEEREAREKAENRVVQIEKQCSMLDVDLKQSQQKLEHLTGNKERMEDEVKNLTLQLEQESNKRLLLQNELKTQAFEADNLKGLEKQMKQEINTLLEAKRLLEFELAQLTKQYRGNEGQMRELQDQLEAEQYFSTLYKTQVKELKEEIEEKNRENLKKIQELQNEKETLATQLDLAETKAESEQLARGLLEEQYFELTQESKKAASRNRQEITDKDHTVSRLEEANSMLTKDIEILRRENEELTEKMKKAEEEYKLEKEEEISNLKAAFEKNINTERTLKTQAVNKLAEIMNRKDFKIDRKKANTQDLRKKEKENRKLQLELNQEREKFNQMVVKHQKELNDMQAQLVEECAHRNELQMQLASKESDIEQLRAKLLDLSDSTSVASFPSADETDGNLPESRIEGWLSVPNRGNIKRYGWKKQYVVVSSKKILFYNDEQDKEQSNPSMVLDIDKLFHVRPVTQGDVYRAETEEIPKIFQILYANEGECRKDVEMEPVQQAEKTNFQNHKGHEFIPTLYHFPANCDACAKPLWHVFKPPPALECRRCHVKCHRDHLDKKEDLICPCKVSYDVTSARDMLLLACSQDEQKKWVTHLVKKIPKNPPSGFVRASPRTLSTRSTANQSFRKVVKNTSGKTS
Setting [2] is: substrate 200 nM, ATP 10 μM, 60 min at 23° C.

Structures can show the parent of a compound that is named as a salt. Where two headings read alike, the source gives them in different places.

T1 sequence (O75116 whole entry, species assumed): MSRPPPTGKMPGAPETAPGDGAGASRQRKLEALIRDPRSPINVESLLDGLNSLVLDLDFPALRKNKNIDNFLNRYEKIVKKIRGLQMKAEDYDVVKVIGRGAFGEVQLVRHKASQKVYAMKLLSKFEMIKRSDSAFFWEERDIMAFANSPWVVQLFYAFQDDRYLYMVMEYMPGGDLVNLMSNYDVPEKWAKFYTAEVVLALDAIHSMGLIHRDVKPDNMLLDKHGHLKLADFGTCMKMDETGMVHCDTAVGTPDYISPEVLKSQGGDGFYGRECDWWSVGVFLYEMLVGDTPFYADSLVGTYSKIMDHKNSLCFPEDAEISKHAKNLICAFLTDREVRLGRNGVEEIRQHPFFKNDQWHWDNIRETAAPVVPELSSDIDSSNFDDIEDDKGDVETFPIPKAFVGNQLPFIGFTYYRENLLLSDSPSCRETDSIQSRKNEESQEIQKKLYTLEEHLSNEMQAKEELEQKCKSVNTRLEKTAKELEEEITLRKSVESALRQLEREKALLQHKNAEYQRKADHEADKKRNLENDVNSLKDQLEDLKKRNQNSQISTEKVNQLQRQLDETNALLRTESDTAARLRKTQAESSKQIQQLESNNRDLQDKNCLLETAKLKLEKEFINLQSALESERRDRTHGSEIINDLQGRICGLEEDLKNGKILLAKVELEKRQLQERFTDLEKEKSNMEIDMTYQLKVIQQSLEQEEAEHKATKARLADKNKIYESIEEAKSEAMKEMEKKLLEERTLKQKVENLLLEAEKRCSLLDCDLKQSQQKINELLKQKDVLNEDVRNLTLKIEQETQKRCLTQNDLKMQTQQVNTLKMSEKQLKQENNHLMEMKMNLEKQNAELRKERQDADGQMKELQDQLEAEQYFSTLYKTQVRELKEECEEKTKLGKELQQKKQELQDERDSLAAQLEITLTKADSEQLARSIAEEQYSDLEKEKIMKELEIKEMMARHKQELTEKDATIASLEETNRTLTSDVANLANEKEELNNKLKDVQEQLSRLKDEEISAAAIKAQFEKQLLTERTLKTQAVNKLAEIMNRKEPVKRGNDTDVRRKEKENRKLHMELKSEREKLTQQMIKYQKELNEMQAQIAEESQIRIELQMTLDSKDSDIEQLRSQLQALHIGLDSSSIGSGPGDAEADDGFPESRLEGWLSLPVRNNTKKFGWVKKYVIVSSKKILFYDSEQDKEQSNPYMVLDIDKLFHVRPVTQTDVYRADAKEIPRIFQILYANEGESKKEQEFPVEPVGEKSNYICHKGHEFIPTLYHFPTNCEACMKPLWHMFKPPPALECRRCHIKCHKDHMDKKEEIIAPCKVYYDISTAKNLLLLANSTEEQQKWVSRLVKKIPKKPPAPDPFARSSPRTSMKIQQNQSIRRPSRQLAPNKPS
Description for ROCK 1: (§1) The rho kinase assays were performed using a Biomek 2000 Robotic Workstation (Beckman Instruments, Palo Alto, Calif.) in a 96-well plate format. The assay was performed utilizing the IMAP ROCK-I and ROCK-II kits (Molecular Devices, Sunnyvale, Calif.) as follows. […] The substrate, enzyme, and ATP dilutions were made with the reaction buffer provided by the vendor. Test compounds were diluted in 10:10 DMSO-ethanol (vol/vol). For the actual assay, the various components were added into black, clear bottom, 96-well plates (Costar, Corning, N.Y.) in a final volume of 20μl per well. After the enzyme reaction (60 min at 23° C.), 60 μl of the binding solution was added per well and incubated for an additional 30 minutes in the dark at 23° C. Fluorescence polarization of the reaction mixtures was then measured on the Analyst™ HT instrument (Molecular Devices, Sunnyvale, Calif.).
Description for ROCK 2: as §1

As for `Cc1n[nH]c2ccc(-c3cnc4ccc(N5CCCNCC5)nn34)cc12` [Example 55, 3-(3-Methyl-1H-indazol-5-yl)-6-perhydro-1,4-diazepin-1-yl-imidazo[1,2-b]pyridazine trihydrochloride], the IC50 at ROCK 2 (setting [2]) amounted to 0.011 µM; against ROCK 1, 0.0088 µM. Further, the “IOP % Change” value in experiment [1] (1 hr after dosing) is reported as 1.0%; in experiment [1] (3 hrs after dosing) it was −21.6%; in experiment [1] (6 hrs after dosing) it was −22.0%. For the same compound, the “IOP Change mmHg” value was 1.0 mmHg in experiment [1] (1 hr after dosing), −8.7 mmHg in experiment [1] (3 hrs after dosing) and −8.9 mmHg in experiment [1] (6 hrs after dosing).
Consider `NC(=O)c1ccc(-c2cnc3ccc(N4CCCNCC4)nn23)cc1` [Example 58, 4-(6-Perhydro-1,4-diazepin-1-yl-imidazo[1,2-b]pyridazin-3-yl)benzamide dihydrochloride], for which the IC50 on ROCK 2 is 16 µM; on ROCK 1 it was 56 µM.
For the compound `CCCCC#Cc1cnc2ccc(NCc3ccccn3)nn12` [Example 28, 3-(Hex-1-ynyl)-N-(pyridin-2-ylmethyl)imidazo[1,2-b]pyridazin-6-amine hydrochloride], the IC50 against ROCK 2 (setting [2]) and at ROCK 1 was more than 100 µM each time.
In the case of `CCCCC/C=C/c1cnc2ccc(NCCCN3CCOCC3)nn12` [Example 22, (E)-3-(Hept-1-enyl)-N-(3-morpholinopropyl)imidazo[1,2-b]pyridazin-6-amine hydrochloride], the values for the IC50 against ROCK 2 (setting [2]) and at ROCK 1 were 120 µM and 38 µM, respectively.
Taken in the same sequence, the figures for `c1cc2[nH]ncc2cc1-c1cnc2ccc(N3CCNCC3)nn12` [Example 51, 3-(1H-Indazol-5-yl)-6-piperazin-1-yl-imidazo[1,2-b]pyridazine dihydrochloride] were 0.0035 µM and 0.12 µM.
With `C1=C(c2cnc3ccc(NCCCN4CCOCC4)nn23)CCCC1` [Example 20, 3-Cyclohexenyl-N-(3-morpholinopropyl)imidazo[1,2-b]pyridazin-6-amine hydrochloride], the results for the IC50 against ROCK 2 (setting [2]) and on ROCK 1 were more than 100 µM and 55 µM, respectively.
In the case of `CCC/C=C/c1cnc2ccc(NCc3ccccn3)nn12` [Example 19, (E)-3-(Pent-1-enyl)-N-(pyridin-2-ylmethyl)imidazo[1,2-b]pyridazin-6-amine hydrochloride], the half-inhibitory concentration (IC50) is 2 µM against ROCK 2 (setting [2]) and 2.1 µM on ROCK 1.
Taken in the same sequence, the figures for `CCCC/C=C/c1cnc2ccc(NCc3cccnc3)nn12` [Example 45, (E)-3-(Hex-1-enyl)-N-(pyridin-3-ylmethyl)imidazo[1,2-b]pyridazin-6-amine] were 4.7 µM and 2.3 µM.
As for `Clc1cnc2ccc(NCc3ccccn3)nn12` [Example 13, 3-Chloro-N-(pyridin-2-ylmethyl)imidazo[1,2-b]pyridazin-6-amine], the IC50 against ROCK 2 (setting [2]) was found to be 17 µM; against ROCK 1 it was 25 µM.
With `CCCC/C=C/c1cnc2ccc(N3CCOCC3)nn12` [Example 5, (E)-4-(3-(Hex-1-enyl)imidazo[1,2-b]pyridazin-6-yl)morpholine fumarate], the IC50 is more than 100 µM against ROCK 2 (setting [2]) and 9.7 µM on ROCK 1.
On the same counts, the results for `CCCC/C=C/c1cnc2ccc(N[C@H]3CC[C@@H](O)CC3)nn12` [Example 50, Syn-(E)-4-(3-(Hex-1-enyl)imidazo[1,2-b]pyridazin-6-ylamino)cyclohexanol hydrochloride] are 17 µM and 6 µM.
Taken in the same sequence, the figures for `CCOCc1cnc2ccc(NCCCN3CCOCC3)nn12` [Example 31, 3-(Ethoxymethyl)-N-(3-morpholinopropyl)imidazo[1,2-b]pyridazin-6-amine hydrocloride] were more than 100 µM and more than 100 µM.
On the same counts, the results for `CCCNc1ccc2ncc(-c3cc(C)cs3)n2n1` [Example 4, 3-(4-Methylthiophen-2-yl)-N-propylimidazo[1,2-b]pyridazin-6-amine] are more than 100 µM and more than 100 µM.
On to `CCCC/C=C/c1cnc2ccc(NCc3ccccn3)nn12` [Example 9, (E)-3-(Hex-1-enyl)-N-(pyridin-2-ylmethyl)imidazo[1,2-b]pyridazin-6-amine fumarate], for which the IC50 against ROCK 2 (setting [2]) is 3.7 µM; at ROCK 1, 7 µM.
In the case of `CCCC/C=C/c1cnc2ccc(NCCCN3CCCC3)nn12` [Example 47, (E)-3-(Hex-1-enyl)-N-(3-(pyrrolidin-1-yl)propyl)imidazo[1,2-b]pyridazin-6-amine dihydrochloride], the IC50 against ROCK 2 stood at 38 µM; against ROCK 1, 59 µM.
For `c1ccc(CNc2ccc3nccn3n2)nc1` [Example 33, N-(Pyridin-2-ylmethyl)imidazo[1,2-b]pyridazin-6-amine hydrochloride], the IC50 is 13 µM on ROCK 2 (setting [2]) and more than 100 µM against ROCK 1.
As for `Cc1n[nH]c2ccc(-c3cnc4ccc(NC5CCCNC5)nn34)cc12` (stereo not shown) [Example 53, [3-(3-methyl-1H-indazol-5-yl)-imidazo[1,2-b]pyridazine-6-yl]-piperidin-3-yl-amine trihydrochloride], the IC50 at ROCK 2 (setting [2]) was found to be 0.073 µM; at ROCK 1 it was 0.082 µM.
